# Several values for one entry are separate records, joined by “and”; a condition that tells them apart may be missing. Equal values may be shown once.
# Assays:
# Format in all cases: in vivo, Rabbit (New Zealand)
# [1] = tested on: pupillary diameter; assay: Pupillary diameter measurement, rabbit paracentesis model; details: 0.5% formulation
# [2] = tested on: iris and conjunctival vessels, anterior chamber; assay: Clinical evaluation by slit lamp (clinical score), rabbit paracentesis model; set-up: key to Clinical Score −180 min / Clinical Score −5 min / Clinical Score +115 min: 0=normal; 1=discrete dilatation of iris and conjunctival vessels; 2=moderate dilatation of iris and conjunctival vessels; 3=intense iridal hyperemia with flare in the anterior chamber; 4=intense iridal hyperemia with flare in the anterior chamber and presence of fibrinous exudates; details: 0.5% formulation
# [3] = tested on: PGE2 in the aqueous humor; assay: Prostaglandin E2 (PGE2) measurement in aqueous humor, rabbit paracentesis model; details: 0.5% formulation
# Description: (§1) Each rabbit was placed in a restraint device and tagged with the alphanumeric code. The formulations were instilled (50 μl) into the conjunctival sac of both eyes 180, 120, 90 and 30 min before the first paracentesis; then 15, 30, 90 min after the first paracentesis. To perform the first paracentesis the animals were anaesthetized by intravenous injection of 5 mg/kg Zoletil® (Virbac; 2.5 mg/kg tiletamine HCl and 2.5 mg/kg zolazepam HCl) and one drop of local anesthetic (Novesina®, Novartis) was administered to the eye. Anterior chamber paracentesis was performed with a 26 G needle attached to a tuberculin syringe; the needle was introduced into the anterior chamber through the cornea, taking care not to damage the tissues. Two hours after the first paracentesis, the animals were sacrificed with 0.4 ml Tanax® (Intervet International B.V.) and the second paracentesis was performed. About 100 μl of aqueous humor were removed at the second paracentesis. Aqueous humor was immediately split in four aliquots and stored at −80° C. until analysis. Then both eyes were enucleated and the iris-ciliary body was carefully excised, placed in polypropylene tubes, and stored at −80° C. until analysis.
# For the quantitative determination of PGE2 in the aqueous humor we used the PGE2 Immunoassay kit (R&D Systems; Cat. No. KGE004; Lot. No. 240010). Eleven microliters or 16 μl of aqueous humor were diluted to 110 μl or 160 μl with the calibrator diluent solution provided with the kit. One hundred microliters of samples and of standards were load into a 96-well plate and recorded in a plate layout. Samples were treated following the assay procedure described in the kit. A microplate reader (GDV, Italy; model DV 990 B/V6) set at 450 nm (wavelength correction at 540 nm) was used for making the calibration and analyzing the samples.
# (§2) Pupillary diameter, PGE2, protein, PMN, and MPO were expressed as mean±SEM. Statistical analysis was performed using one way ANOVA followed by a Newman-Keuls post hoc test. Clinical score was expressed as % of eyes and the statistical analysis was performed using Kruskal-Wallis followed by a Dunn post hoc test. P<0.05 was considered statistically significant in both cases. Prism 4 software (GraphPad Software, Inc.) was used for the analysis and graphs.
# [4] = tested on: protein concentration in the aqueous humor; assay: Protein measurement in aqueous humor, rabbit paracentesis model; details: 0.5% formulation, second paracentesis
# Description: as §1
# For protein concentration determination in the aqueous humor we used the Protein Quantification Kit (Fluka; Cat. No. 77371; Lot. No. 1303129). Five microliters of aqueous humor were diluted to 100 μl with water. Twenty microliters of samples and of standards were load into a 96-well plate and recorded in a plate layout. Samples were treated following the assay procedure described in the kit. A microplate reader (GDV, Italy; model DV 990 B/V6) set at 670 nm was used for making the calibration and analyzing the samples.
# as §2
# [5] = tested on: leukocytes (PMN) in aqueous humor; assay: Leukocytes (PMN) measurement in aqueous humor, rabbit paracentesis model; details: 0.5% formulation; second paracentesis; group mean
# Description: as §1
# For the determination of the number of leukocytes we used a haernocytometer (Improved Neubauer Chamber; Bright-line, Hausser Scientific) and a Polyvar 2 microscope (Reichert-Jung).
# as §2
# [6] = tested on: MPO activity in iris-ciliary body; assay: Myeloperoxidase (MPO) activity in iris-ciliary body, rabbit paracentesis model
# Description: as §1
# The activity of MPO was measured as previously described by Williams et al.[5] The iris-ciliary bodies were carefully dried, weighed and immersed in 1 ml of hexa-decyl-trimethyl-ammonium bromide solution. Then, the samples were sonicated for 10 sec on ice by a ultrasound homogenizer (HD 2070, Bandelin electronic), freeze-thawed three times, sonicated for 10 sec and centrifuged at 14,000 g for 10 min to remove cellular debris. An aliquot of the supernatant (40-200 μl) was diluted to 3 ml with the o-dianisidine 2HCl/H2O2 solution. The change in absorbance at 460 nm was continuously monitored for 5 min by a spectrophotometer (UV/Vis Spectrometer Lambda EZ 201; Perkin Elmer). The slope of the line (Δ/min) was determined for each sample and used to calculate the number of units of MPO in the tissue as follows:
# Values were expressed as units of MPO/g of tissue.
# as §2
# [7] = 5 min before the first paracentesis, raw data per eye
# [8] = 5 min before the second paracentesis, raw data per eye
compound,measurement,setting,value
"CCOC(=O)O[C@]1(C(=O)OCCl)CC[C@H]2[C@@H]3CCC4=CC(=O)C=C[C@]4(C)[C@H]3[C@@H](O)C[C@@]21C [LE, loteprednol etabonate]",Pupillary diameter T2: −5 min,[1]; [7],6.0 mm and 6.5 mm
same,Pupillary diameter T3: +115 min,[1]; [8],4.5 mm and 5.0 mm and 5.5 mm and 6.0 mm
same,Pupillary diameter T1: −180 min,"[1]; basal, raw data per eye",6.0 mm and 6.5 mm
same,Mean (mm) Δ(T3 − T1) of pupillary diameter,"[1]; group mean, n=8 eyes",−0.9 mm
same,Clinical Score −5 min,[2]; [7],0
same,Clinical Score +115 min,[2]; [8],2 and 1
same,Percentage of eyes with clinical score 1,"[2]; +115 min, N=8 eyes",75%
same,Percentage of eyes with clinical score 2,"[2]; +115 min, N=8 eyes",25%
same,Clinical Score −180 min,"[2]; basal, raw data per eye",0
same,"Clinical score, difference versus CTR (vehicle)","[2]; p<0.05, Kruskal-Wallis, Dunn",significant difference versus CTR
same,Percentage of eyes with clinical score 0,"[2]; −5 min, N=8 eyes",100%
same,Percentage of eyes with clinical score 0,"[2]; −180 min (basal), N=8 eyes",100%
same,"PGE2 in aqueous humor, statistical significance versus CTR",[3]; p<0.05,statistically significant versus CTR
same,"PGE2 level in aqueous humor, Mean","[3]; second paracentesis, group mean",0.672 ng/mL
same,"Protein level in aqueous humor, Mean",[4]; group mean,33.905 mg/mL
same,"Protein level in aqueous humor, raw data",[4]; per eye,36.14 mg/mL and 39.10 mg/mL and 34.69 mg/mL and 26.10 mg/mL and 26.30 mg/mL and 28.16 mg/mL and 40.90 mg/mL and 39.85 mg/mL
same,"PMN numbers in aqueous humor, Mean",[5],28.333 number/μl
same,MPO activity in iris-ciliary body,"[6]; 0.5% LE, individual samples collected after the second paracentesis",1.01 Unit/g
same,"MPO activity in iris-ciliary body, Mean","[6]; 0.5% formulation, after the second paracentesis, group mean",0.661 MPO Unit/g

# From patent US20120316199A1, “COMPOSITIONS AND METHODS FOR TREATING, CONTROLLING, REDUCING, OR AMELIORATING INFLAMMATORY PAIN” (priority 2011, published 2012)
